According to patent US4637996A, “Antiulcer composition containing a dipeptide compound” (Nippon Zoki Pharmaceutical Co., Ltd., priority 1984, dated 1987):

Tested on: histamine-induced ulcer formation
Assay: Inhibition of histamine-induced ulcer formation
Type: in vivo, Wister strain rats
Details: 20 mg/kg i.v., rats, histamine dihydrochloride 300 mg/kg i.p., 4 hours; for Ulcer coefficient (mean ± S.E.): sum of surface area of ulcer lesion
Protocol: Immediately thereafter, 300 mg/kg of histamine dihydrochloride was administered intraperitoneally (i.p.) F. Burcher et al; [Beith. Path. Anat., 81, 391 (1928)]. Four hours later, each animal was bled to death by decapitation, and the stomach was removed. 7.5 ml of physiological saline was infused into the removed stomach and partially fixed in 10% formalin for 10 minutes. Then, the stomach was incised along the greater curvature. The sum of the surface area of the ulcer lesion on the glandular part of the stomach was designated as the ulcer coefficient.

cyclic histidyllysine
Inhibition rate (%): 66.8% | Ulcer coefficient (mean ± S.E.): 14.9 ± 6.0

CN/C(=N/CCSCc1nc[nH]c1C)NC#N [Cimetidine]
Inhibition rate (%): 57.6% | Ulcer coefficient (mean ± S.E.): 19.1 ± 10.6
